Test results as given in patent US20180044686A1, “TOOLS AND METHODS FOR USING CELL DIVISION LOCI TO CONTROL PROLIFERATION OF CELLS” (Sinai Health System, priority 2015, published 2018).

Columns and labels:
[1] = test system: subcutaneous teratomas comprising ALINK-modified mouse C2 cells; assay: Teratoma assay, ALINK-modified mouse C2 ES cells; format: in vivo
Protocol: (§1) Matrigel Matrix High Concentration (Corning) was diluted 1:3 with cold DMEM media on ice. 5-10×10^6 cells were suspended into 100 ul of 66% DMEM+33% Matrigel media and injected subcutaneously into either or both dorsal flanks of B6N mice (for mouse C2 ES cells) and NOD-SCID mice (for human ES cells). Teratomas formed 2-4 weeks after injection. Teratoma size was measured by caliper, and teratoma volume was calculated using the formula V=(L×W×H)π/6. GCV/PBS treatment was performed by daily injection with 50 mg/kg into the peritoneal cavity with different treatment durations. At the end of treatment, mice were sacrificed and tumors were dissected and fixed in 4% paraformaldehyde for histology analysis.

[2] = test system: subcutaneous teratomas comprising ALINK-modified H1 ES cells; assay: Teratoma assay, ALINK-modified human ES cells; format: in vivo, mouse (human ES cell graft); conditions: NOD scid gamma mouse hosts; two rounds of GCV (15 days + 40 days)
Protocol: as §1

[3] = test system: ALINK-modified MMTV-PyMT-transformed mammary epithelial tumorigenic cell grafts; assay: Mammary gland tumor assay; format: in vivo, mouse; conditions: B6N hosts; GCV 50 mg/kg every other day i.p.
Source text: Chimeras of Cdk1^+/+, +/loxp-alink mouse C2 ES and CD-1 backgrounds were generated through diploid aggregation, and then were bred with B6N WT mice to generate Cdk1^+/+, +/loxp-alink mice through germline transmission. Cdk1^+/+, +/loxp-alink mice were bred with Ella-Cre mice to generate Cdk1^+/+, +/alink mice. Cdk1^+/+, +/alink mice were then bred with MMTV-PyMT mice (Guy et al., 1992) to get double-positive pups with mammary gland tumors and ALINK modification. Mammary gland tumors with fail-safe modification were isolated, cut into 1 mm^3 pieces, and transplanted into the 4th mammary gland of wild-type B6N females. GCV/PBS treatment was injected every other day at the dosage of 50 mg/kg into the peritoneal cavity with different treatment durations. Mammary gland tumor size was measured by calipers and calculated with the formula V=Length*Width*Height*π/6.

[4] = test system: mixed culture of non-dividing neurons and dividing NEPs derived from Cdk1+/+,+/alink human CA1 ES cells; assay: Neuronal progenitor vs. neuron killing assay; format: cell-based; conditions: GCV 10 uM every other day for 20 days
Protocol: Cdk1^+/+, +/alink human CA1 ES cells were differentiated to neural epithelial progenitor cells (NEPs). NEPs were subsequently cultured under conditions for differentiation into neurons, thereby generating a mixed culture of non-dividing neurons and dividing NEPs, which were characterized by immunostaining of DAPI, Ki67 and Sox2. GCV (10 uM) was provided to the mixed culture every other day for 20 days. Then, GCV was withdrawn from culture for 4 days before cells were fixed by 4% PFA. Fixed cells were immunostained for proliferation marker Ki67 to check whether all the leftover cells have exited cell cycle, and mature neutron marker beta-TublinIII.

[5] = test system: homozygous Cdk1 dox-bridge knock-in mouse ES cells; assay: Targeted cell growth of Cdk1 dox-bridge (EARC) ES cells; format: cell-based; conditions: withdrawal of doxycycline
Protocol: F3-bridge targeted cells were trypsinized and plated on gelatinized 24 well plates at a density of 5×10^4 cells per well. Starting one day after plating, cell counting was performed by trypsinizing 3 wells for each condition and counting live cells using a Countess automated cell counter (Life Technologies). Doxycycline was removed or reduced to 0.05 ng/ml 2 days after plating and live cells were counted every day up to 18 days in the different conditions.

Top2a-EARC ES cells = assay: Targeted cell growth of Top2a-EARC ES cells; format: cell-based, mouse; conditions: withdrawal of doxycycline
Protocol: (§2) Top2a homozygously-targeted cells were trypsinized and plated on gelatinized 24 well plates at a density of 5×10^4 cells per well. Starting one day after plating, cells were exposed to different Dox concentrations (1 μg/ml, 0.5 μg/ml, 0.05 μg/ml and 0 μg/ml), the plate was analyzed in a IncucyteZoom system (Essen Bioscience) by taking pictures every two hours for 3-4 days and measuring confluency.

Cenpa-EARC ES cells = assay: Targeted cell growth of Cenpa-EARC ES cells; format: cell-based, mouse; conditions: withdrawal of doxycycline
Protocol: as §2, with “Cenpa” for “Top2a”

Birc5-EARC ES cells = assay: Targeted cell growth of Birc5-EARC ES cells; format: cell-based, mouse; conditions: withdrawal of doxycycline
Protocol: as §2, with “Birc5” for “Top2a”, “confluence.” for “confluency.”

Eef2-EARC ES cells = assay: Targeted cell growth of Eef2-EARC ES cells; format: cell-based, mouse; conditions: withdrawal of doxycycline
Protocol: as §2, with “Eef2” for “Top2a”, “confluence.” for “confluency.”

[6] = cited from earlier work

## Nc1nc(O)c2ncn(COC(CO)CO)c2n1 [GCV, ganciclovir]
[1]; GCV 50 mg/kg daily i.p.
  effect on quiescent cells of the teratoma: did not affect quiescent cells of the teratoma
  teratoma growth: stops teratoma growth
[1]; brief (3 week) GCV treatment period
  teratoma dormancy: sufficient to render the teratomas dormant
[2]
  teratoma dormancy: rendered the teratomas to dormancy
[3]
  mammary gland tumor dormancy: able to render the mammary gland tumors to dormancy
[4]
  killing of dividing NEPs: killed the dividing NEPs
  killing of non-dividing neurons: did not kill the non-dividing neurons

## C[C@H]1c2cccc(O)c2C(=O)C2=C(O)[C@]3(O)C(=O)C(C(N)=O)=C(O)[C@@H](N(C)C)[C@@H]3[C@@H](O)[C@@H]21 [doxycycline]
[5]
  time to complete elimination of mitotically active ES cells: ≤ 5 days
Top2a-EARC ES cells
  time to complete elimination of mitotically active ES cells: ≤ 4 days
Cenpa-EARC ES cells
  time to complete elimination of mitotically active ES cells: ≤ 4 days
Birc5-EARC ES cells
  time to complete elimination of mitotically active ES cells: ≤ 4 days
Eef2-EARC ES cells
  time to complete elimination of mitotically active ES cells: ≤ 4 days

## Bms1
[6]; gene locus (predicted CDL), CRISPR score average
  CS score (CRISPR score average provided in Wang et al., 2015): −1.36

## Ppan
[6]; CRISPR score average provided in Wang et al., 2015, score of the gene locus (predicted CDL)
  CS score: −1.62
